Measurements as given in ChEMBL document CHEMBL1201862, “PubChem BioAssay data set” (2004).
Activity calls are given as the source filed them.

Assays:
[1] = biological target: T1, Delta-type opioid receptor (Homo sapiens, UniProt P41143); assay: HTS Image-Based Screen for Antagonists of the DOR Receptor. [Related pubchem assays (depositor defined):AID1777, AID1785, AID1786, AID2133]; format: functional
[2] = biological target: T2, Mu-type opioid receptor (Homo sapiens, UniProt P35372); assay: HTS Image-Based Screen for Agonists of the MOR Receptor. [Related pubchem assays (depositor defined):AID1777, AID1785, AID1786, AID2133]; format: functional
T2 sequence (P35372 whole entry): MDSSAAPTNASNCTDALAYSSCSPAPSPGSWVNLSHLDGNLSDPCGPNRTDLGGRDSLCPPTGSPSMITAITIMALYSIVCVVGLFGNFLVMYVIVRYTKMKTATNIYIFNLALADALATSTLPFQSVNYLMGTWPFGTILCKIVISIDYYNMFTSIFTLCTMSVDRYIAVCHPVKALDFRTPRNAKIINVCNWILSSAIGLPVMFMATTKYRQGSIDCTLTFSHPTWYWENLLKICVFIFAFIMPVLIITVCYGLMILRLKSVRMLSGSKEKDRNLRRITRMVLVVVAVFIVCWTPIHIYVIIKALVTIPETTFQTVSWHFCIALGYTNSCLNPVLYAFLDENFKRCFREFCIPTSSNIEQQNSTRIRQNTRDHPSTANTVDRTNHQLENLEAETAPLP

[3] = biological target: T1, Delta-type opioid receptor; assay: HTS Image-Based Screen for Agonists of the DOR Receptor. [Related pubchem assays (depositor defined):AID1777, AID1786, AID2133]; format: functional
[4] = biological target: T3, Kappa-type opioid receptor (Homo sapiens, UniProt P41145); format: functional
T3 sequence (P41145 whole entry): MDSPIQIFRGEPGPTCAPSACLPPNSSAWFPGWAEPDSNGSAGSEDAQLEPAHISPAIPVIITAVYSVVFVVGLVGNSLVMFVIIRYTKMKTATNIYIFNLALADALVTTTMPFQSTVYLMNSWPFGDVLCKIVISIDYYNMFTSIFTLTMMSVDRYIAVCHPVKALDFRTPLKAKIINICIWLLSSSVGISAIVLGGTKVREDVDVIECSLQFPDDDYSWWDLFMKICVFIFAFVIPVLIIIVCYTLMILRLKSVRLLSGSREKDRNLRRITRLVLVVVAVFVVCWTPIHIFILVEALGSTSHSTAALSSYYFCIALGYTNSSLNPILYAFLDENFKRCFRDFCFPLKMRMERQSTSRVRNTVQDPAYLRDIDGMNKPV

[5] = biological target: T3, Kappa-type opioid receptor; format: functional; remark: listed apart in the source
[6] = biological target: T3, Kappa-type opioid receptor; format: functional; remark: listed apart in the source
[7] = biological target: T3, Kappa-type opioid receptor; assay: SAR analysis of small molecule agonists of the kappa opioid receptor via a luminescent beta-arrestin assay. [Related pubchem assays (depositor defined):AID1777, AID1786, AID1966, AID2133, AID2136, AID2348, AID2352, AID2357, AID2359, AID2370, AID2420, AID2478, AID2491, AID2492, AID2493, AID2497, AID2498, AID2500, AID449737, AID488822, AID488842]; format: functional
[8] = biological target: T2, Mu-type opioid receptor; assay: MOR agonists by imaging, SAR follow-up, image-based (AID 2352); format: functional
[9] = biological target: T1, Delta-type opioid receptor; assay: DOR agonists, SAR follow-up, image-based (AID 2370); format: functional
[10] = biological target: T3, Kappa-type opioid receptor; assay: KOR antagonists by imaging, SAR follow-up, image-based (AID 2348); format: functional
[11] = biological target: T2, Mu-type opioid receptor; assay: MOR antagonists, SAR follow-up, image-based (AID 2420); format: functional;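 further: compounds added before stimulation of receptor with agonist DAMGO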
[12] = biological target: T3, Kappa-type opioid receptor; assay: KOR agonist analogs, imaging readout, SAR follow-up, image-based (AID 2359); format: functional
[13] = biological target: T1, Delta-type opioid receptor; assay: DOR antagonists, SAR follow-up, image-based (AID 2357); format: functional
[14] = biological target: Ion channel NompC (Danio rerio, UniProt Q7T1G6); assay: Dose response cell-based high-throughput screening assay for agonists of the transient receptor potential channel N1 (TRPN1). [Related pubchem assays (depositor defined):AID1424, AID1448]; format: functional
[15] = biological target: Mucolipin-3 (Homo sapiens, UniProt Q8TDD5); assay: Fluorescence counterscreen assay for […] agonists: dose response cell-based high-throughput screening assay to identify agonists of the transient receptor potential channel ML3 (TRPML3). [Related pubchem assays: 1424, 1448 ]; format: functional
[16] = Shn3 3'UTR reporter inhibitors, dose response, cell-based, Clone20 osteoblasts, firefly luciferase, cherry-picked (AID 624132); format: functional;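 further: firefly luciferase luminescence from reporter carrying the Shn3 3'UTR in osteoblasts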
[17] = HepG2 cell cytotoxicity, dose response, cytotoxicity control for Shn3 inhibitor project, CellTiter-Glo, cherry-picked (AID 624134); format: functional, cell-based
[18] = control 3'UTR Renilla luciferase suppression, dose response, counter-screen for Shn3 inhibitor project, cell-based, Clone20-Shn3RL, cherry-picked (AID 624133); format: functional
[19] = biological target: Peroxisome proliferator-activated receptor gamma/Nuclear receptor coactivator 2 (Homo sapiens, UniProt P37231); format: functional;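 further: agonist potency for raising coactivator recruitment to the receptor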
Chain of Peroxisome proliferator-activated receptor gamma/Nuclear receptor coactivator 2 (P37231 whole entry): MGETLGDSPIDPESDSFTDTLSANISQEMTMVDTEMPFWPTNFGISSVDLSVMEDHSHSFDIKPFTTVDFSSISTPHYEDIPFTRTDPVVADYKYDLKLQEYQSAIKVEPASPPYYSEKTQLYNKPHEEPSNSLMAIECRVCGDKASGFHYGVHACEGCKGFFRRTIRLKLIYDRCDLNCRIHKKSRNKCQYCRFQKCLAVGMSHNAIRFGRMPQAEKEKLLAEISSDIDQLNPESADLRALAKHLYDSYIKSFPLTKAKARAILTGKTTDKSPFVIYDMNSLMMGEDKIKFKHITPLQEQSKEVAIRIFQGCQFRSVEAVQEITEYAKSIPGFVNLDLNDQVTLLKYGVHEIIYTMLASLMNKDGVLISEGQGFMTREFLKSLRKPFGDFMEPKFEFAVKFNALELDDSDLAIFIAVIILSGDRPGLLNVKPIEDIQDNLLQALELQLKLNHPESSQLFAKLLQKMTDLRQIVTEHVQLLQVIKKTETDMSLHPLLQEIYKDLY
Chain of Peroxisome proliferator-activated receptor gamma/Nuclear receptor coactivator 2 (Q15596 whole entry, further chain): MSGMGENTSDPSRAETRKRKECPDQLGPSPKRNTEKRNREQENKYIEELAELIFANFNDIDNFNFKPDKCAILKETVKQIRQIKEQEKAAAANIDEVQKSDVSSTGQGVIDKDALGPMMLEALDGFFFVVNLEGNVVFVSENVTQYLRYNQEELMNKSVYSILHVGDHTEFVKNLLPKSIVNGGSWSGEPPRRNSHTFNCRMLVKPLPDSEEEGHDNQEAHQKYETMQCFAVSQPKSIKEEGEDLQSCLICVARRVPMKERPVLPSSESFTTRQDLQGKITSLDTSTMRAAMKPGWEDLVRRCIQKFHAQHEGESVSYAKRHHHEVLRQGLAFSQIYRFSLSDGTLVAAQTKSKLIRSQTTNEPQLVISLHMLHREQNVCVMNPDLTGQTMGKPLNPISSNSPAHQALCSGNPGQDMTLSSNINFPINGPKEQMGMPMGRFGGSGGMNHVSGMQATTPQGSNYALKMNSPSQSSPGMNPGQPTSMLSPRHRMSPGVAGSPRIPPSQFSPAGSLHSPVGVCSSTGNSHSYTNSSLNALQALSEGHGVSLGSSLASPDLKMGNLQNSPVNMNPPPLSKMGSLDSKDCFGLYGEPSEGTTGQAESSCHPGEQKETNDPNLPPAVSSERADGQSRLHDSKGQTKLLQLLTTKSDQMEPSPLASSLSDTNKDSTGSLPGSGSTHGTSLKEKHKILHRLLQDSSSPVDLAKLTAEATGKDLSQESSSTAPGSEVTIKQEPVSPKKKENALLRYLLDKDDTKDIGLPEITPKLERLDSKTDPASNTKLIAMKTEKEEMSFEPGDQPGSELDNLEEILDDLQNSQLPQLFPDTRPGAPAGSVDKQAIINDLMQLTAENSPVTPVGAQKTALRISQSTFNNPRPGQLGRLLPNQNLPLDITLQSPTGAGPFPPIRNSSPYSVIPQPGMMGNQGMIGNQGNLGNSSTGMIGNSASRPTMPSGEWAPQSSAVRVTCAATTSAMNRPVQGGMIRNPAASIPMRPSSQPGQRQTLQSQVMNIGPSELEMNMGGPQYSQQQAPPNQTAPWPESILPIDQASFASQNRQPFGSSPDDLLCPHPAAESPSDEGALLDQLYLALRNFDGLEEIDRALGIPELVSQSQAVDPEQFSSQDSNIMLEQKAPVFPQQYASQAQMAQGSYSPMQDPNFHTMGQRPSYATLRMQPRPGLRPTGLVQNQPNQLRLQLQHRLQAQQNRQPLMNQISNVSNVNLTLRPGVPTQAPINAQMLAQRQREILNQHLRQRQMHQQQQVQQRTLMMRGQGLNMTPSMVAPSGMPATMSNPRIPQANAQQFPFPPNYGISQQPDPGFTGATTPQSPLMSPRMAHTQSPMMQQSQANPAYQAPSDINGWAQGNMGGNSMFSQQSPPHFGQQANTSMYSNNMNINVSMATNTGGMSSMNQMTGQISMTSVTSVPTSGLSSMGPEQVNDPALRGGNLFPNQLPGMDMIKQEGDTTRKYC

[20] = biological target: Peroxisome proliferator-activated receptor gamma/Nuclear receptor coactivator 1 (Homo sapiens, UniProt P37231); format: functional;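 further: agonist potency as compounds enhance coactivator SRC-1 recruitment to PPARgamma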
[21] = biological target: T4, Dual specificity protein phosphatase 3 (Homo sapiens, UniProt P51452); assay: VHR1 phosphatase inhibitors, primary screen, biochemical, absorbance, uHTS (AID 1654)
T4 sequence (P51452 whole entry): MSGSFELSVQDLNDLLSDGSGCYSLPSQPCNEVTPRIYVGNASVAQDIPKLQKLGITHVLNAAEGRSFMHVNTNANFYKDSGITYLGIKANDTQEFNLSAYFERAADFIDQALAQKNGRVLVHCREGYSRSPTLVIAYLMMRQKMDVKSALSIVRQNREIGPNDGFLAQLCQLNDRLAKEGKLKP

[22] = biological target: Peroxisome proliferator-activated receptor gamma/Nuclear receptor coactivator 3 (Homo sapiens, UniProt P37231); format: functional;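 further: agonist potency for raising coactivator recruitment to the receptor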
[23] = biological target: T4, Dual specificity protein phosphatase 3; assay: VHR1 phosphatase inhibitors, biochemical (AID 1878)
[24] = biological target: T5, Dual specificity protein phosphatase 6 (Rattus norvegicus, UniProt Q64346); assay: MKP-3 phosphatase inhibitors, primary screen, biochemical, rat enzyme, in vitro (AID 425)
T5 sequence (Q64346 whole entry): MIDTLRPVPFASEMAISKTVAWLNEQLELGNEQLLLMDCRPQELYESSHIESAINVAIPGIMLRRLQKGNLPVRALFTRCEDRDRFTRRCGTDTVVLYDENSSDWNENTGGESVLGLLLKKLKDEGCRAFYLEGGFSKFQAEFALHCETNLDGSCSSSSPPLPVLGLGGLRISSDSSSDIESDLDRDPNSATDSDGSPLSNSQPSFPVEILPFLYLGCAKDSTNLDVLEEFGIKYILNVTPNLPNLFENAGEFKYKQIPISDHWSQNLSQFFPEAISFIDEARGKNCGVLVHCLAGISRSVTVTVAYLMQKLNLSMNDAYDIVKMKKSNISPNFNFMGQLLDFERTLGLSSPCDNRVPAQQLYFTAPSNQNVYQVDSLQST

[25] = biological target: DNA dC->dU-editing enzyme APOBEC-3A (Homo sapiens, UniProt P31941); assay: APOBEC3A DNA deaminase inhibitors, dose response, biochemical (AID 504722); format: functional
Chain of DNA dC->dU-editing enzyme APOBEC-3A (P31941 whole entry): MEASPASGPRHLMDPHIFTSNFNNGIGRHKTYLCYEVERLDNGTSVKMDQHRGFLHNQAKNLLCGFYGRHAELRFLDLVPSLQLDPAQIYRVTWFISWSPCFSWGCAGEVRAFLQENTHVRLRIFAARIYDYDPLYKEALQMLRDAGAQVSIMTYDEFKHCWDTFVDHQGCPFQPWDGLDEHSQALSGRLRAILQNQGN

[26] = biological target: Glucose-6-phosphate 1-dehydrogenase (Homo sapiens, UniProt P11413); assay: human G6PD enzyme inhibitors, dose response, selectivity assay for P. falciparum G6PD inhibitor project, biochemical, fluorescence (AID 504792); format: functional
[27] = biological target: T4, Dual specificity protein phosphatase 3; assay: SAR VHR1 absorbance Assay for In Vitro dose response studies. [Related pubchem assays (depositor defined):AID1654, AID1661, AID1878, AID1992, AID2004]
[28] = biological target: T4, Dual specificity protein phosphatase 3; assay: SAR VHR1 Fluorescent Assay for In Vitro dose response studies. [Related pubchem assays (depositor defined):AID1654, AID1661, AID1878, AID1992, AID2004, AID2070, AID2085]; format: functional
[29] = biological target: T6, Tyrosine-protein phosphatase non-receptor type 7 (Homo sapiens, UniProt P35236); assay: redox-dependent HePTP inhibition, mechanism study, biochemical, fluorescence (AID 2068); format: functional
T6 sequence (P35236 whole entry): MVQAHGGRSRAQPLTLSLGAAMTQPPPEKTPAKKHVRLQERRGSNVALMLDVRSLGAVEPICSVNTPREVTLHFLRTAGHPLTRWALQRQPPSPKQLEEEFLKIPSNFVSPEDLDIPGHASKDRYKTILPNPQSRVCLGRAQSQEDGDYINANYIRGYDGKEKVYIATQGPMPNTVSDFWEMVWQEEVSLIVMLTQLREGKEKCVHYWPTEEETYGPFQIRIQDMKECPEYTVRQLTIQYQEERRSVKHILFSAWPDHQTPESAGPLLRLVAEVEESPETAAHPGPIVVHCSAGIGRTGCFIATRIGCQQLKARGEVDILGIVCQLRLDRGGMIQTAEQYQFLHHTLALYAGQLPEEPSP

[30] = biological target: T5, Dual specificity protein phosphatase 6; assay: SAR analysis of inhibitors of MKP-3 - Set 2. [Related pubchem assays (depositor defined):AID1055, AID1661, AID425, AID553, AID566]; format: functional
[31] = biological target: DNA dC->dU-editing enzyme APOBEC-3G (Homo sapiens, UniProt Q9HC16); assay: Dose Response confirmation of small molecule APOBEC3G DNA Deaminase Inhibitors via a fluorescence-based single-stranded DNA deaminase assay. [Related pubchem assays (depositor defined):AID493012, AID493028]; format: functional
Chain of DNA dC->dU-editing enzyme APOBEC-3G (Q9HC16 whole entry): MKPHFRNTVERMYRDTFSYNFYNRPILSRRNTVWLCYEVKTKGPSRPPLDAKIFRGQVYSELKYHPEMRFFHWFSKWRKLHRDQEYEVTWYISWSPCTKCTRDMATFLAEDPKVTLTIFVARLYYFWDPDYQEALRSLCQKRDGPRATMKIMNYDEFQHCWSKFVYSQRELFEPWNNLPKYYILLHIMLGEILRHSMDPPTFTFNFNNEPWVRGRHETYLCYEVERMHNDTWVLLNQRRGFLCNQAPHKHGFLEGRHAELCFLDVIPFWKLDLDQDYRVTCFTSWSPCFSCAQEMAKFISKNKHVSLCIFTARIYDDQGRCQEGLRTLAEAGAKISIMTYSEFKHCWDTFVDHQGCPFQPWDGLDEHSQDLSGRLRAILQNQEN

[32] = biological target: T6, Tyrosine-protein phosphatase non-receptor type 7; assay: SAR analysis of chemical inhibitors of HePTP using a Fluorescent assay - Set 2. [Related pubchem assays (depositor defined):AID1059, AID1077, AID1661, AID2085, AID521]; format: functional
[33] = biological target: T4, Dual specificity protein phosphatase 3; assay: SAR VHR1 Fluorescent Assay for In Vitro dose response studies Set 2. [Related pubchem assays (depositor defined):AID1654, AID1661, AID1878]; format: functional
[34] = biological target: T5, Dual specificity protein phosphatase 6; format: functional
[35] = biological target: Intestinal-type alkaline phosphatase (Homo sapiens, UniProt P09923); assay: activation of human intestinal alkaline phosphatase – biochemical, dose response (AID 488873); format: functional
Chain of Intestinal-type alkaline phosphatase (Homo sapiens, UniProt P09923) (P09923 whole entry): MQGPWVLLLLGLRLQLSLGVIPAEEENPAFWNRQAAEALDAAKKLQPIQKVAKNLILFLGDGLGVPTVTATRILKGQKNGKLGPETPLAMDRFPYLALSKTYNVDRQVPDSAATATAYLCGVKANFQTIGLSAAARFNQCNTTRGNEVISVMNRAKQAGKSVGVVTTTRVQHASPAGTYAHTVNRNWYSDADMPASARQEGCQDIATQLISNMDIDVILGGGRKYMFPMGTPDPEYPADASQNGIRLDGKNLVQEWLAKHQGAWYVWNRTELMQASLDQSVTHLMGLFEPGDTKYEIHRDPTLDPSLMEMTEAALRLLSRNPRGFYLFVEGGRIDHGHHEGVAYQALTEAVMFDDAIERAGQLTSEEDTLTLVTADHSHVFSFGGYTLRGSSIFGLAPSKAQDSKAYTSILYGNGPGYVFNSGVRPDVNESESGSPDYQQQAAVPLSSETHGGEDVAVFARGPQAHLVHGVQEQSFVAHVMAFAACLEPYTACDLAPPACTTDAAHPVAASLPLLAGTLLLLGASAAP

[36] = biological target: Intestinal-type alkaline phosphatase (Mus musculus, UniProt P24822); assay: PubChem AID 488785; format: functional
Chain of Intestinal-type alkaline phosphatase (Mus musculus, UniProt P24822) (P24822 whole entry): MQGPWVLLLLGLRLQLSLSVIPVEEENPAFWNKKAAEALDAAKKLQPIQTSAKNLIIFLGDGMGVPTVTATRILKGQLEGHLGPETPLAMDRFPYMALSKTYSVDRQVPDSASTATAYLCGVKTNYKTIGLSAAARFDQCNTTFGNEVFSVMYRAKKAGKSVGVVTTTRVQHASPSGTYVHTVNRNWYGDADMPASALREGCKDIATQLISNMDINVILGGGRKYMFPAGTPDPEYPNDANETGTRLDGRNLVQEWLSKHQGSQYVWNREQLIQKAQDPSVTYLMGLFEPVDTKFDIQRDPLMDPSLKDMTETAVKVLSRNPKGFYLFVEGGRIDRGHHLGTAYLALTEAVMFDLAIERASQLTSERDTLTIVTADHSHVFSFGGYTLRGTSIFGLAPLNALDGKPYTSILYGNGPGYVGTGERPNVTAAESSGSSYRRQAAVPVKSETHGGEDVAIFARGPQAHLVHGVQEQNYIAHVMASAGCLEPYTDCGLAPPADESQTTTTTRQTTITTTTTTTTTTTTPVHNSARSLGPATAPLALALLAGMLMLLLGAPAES

[37] = biological target: T7, Alkaline phosphatase, tissue-nonspecific isozyme (Homo sapiens, UniProt P05186); assay: TNAP enzyme inhibition by screening hits, dose response, selectivity assay for mouse IAP inhibitor project, biochemical, human TNAP, uHTS hits (AID 488906); format: functional
T7 sequence (P05186 whole entry): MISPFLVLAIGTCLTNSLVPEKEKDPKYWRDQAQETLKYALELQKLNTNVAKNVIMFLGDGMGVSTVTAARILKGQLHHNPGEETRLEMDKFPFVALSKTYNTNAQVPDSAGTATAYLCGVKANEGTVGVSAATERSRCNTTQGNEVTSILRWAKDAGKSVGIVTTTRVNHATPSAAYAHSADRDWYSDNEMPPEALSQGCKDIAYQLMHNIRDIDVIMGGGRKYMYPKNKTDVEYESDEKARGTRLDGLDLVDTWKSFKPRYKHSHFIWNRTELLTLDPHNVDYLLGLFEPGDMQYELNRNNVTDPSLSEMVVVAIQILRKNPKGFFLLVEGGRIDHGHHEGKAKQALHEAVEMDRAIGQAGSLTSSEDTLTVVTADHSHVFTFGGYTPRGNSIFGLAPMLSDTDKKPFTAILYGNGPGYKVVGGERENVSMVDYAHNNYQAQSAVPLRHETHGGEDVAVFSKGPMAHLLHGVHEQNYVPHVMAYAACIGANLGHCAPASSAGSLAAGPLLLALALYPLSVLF

T1 sequence (P41143 whole entry): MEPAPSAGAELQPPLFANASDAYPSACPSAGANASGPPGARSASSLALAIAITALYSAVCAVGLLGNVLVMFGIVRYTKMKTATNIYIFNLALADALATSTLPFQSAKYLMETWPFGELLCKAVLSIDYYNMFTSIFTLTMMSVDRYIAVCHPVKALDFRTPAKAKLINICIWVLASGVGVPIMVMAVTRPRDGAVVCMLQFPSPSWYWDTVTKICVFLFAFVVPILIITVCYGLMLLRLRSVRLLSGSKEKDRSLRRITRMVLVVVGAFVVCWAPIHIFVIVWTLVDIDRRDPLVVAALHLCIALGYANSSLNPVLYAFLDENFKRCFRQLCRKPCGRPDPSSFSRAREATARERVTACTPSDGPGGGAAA

Q: Which results are given for O=C(c1ccccn1)N(Cc1cccs1)C1(C(=O)NC2CCCCC2)CCCCC1?
A: IC50 [1]: > 32 µM (inactive); EC50 [2]: > 32 µM (inactive); EC50 [3]: > 32 µM (inactive); EC50 [4]: < 0.5 µM; IC50 [5]: > 5 µM (inactive); EC50 [6]: 0.103 µM; EC50 [7]: 0.116 µM (active); EC50 [8]: > 32 µM (inactive); EC50 [9]: > 32 µM (inactive); IC50 [10]: > 32 µM (inactive); IC50 [11]: > 32 µM (inactive); EC50 [12]: < 0.06 µM (active); IC50 [13]: > 32 µM (inactive)

Q: Which EC50 [14] does the source give for Cc1ccc([N+](=O)[O-])cc1NC(=O)Nc1cccc(F)c1 here?
A: Its EC50 is > 29.9 µM (inactive).

Q: What about the EC50 [15] of the same compound?
A: The EC50 was > 29.9 µM (not active).

Q: And the AC50 [16]?
A: Its AC50 is 2.21 µM (active).

Q: What about the AC50 [17] of the same compound?
A: Its AC50 is 7.82 µM (active).

Q: What about the AC50 [18] of the same compound?
A: The AC50 was 2.13 µM (active).

Q: Which EC50 [19] does the source give for Cc1ccc(-n2c(N)c(C(=O)N3CCN(C)CC3)sc2=S)cc1 here?
A: Its EC50 is > 79.4 µM (not active).

Q: What about the EC50 [20] of the same compound?
A: Its EC50 is > 79.4 µM (not active).

Q: And the IC50 [21]?
A: Its IC50 is 2.33 µM (active).

Q: And the EC50 [22]?
A: The EC50 was > 79.4 µM (not active).

Q: And the IC50 [23]?
A: Its IC50 is 5.73 µM (active).

Q: What about the IC50 [24] of the same compound?
A: The IC50 was > 158 µM (not active).

Q: What about the IC50 [25] of the same compound?
A: Its IC50 is > 100 µM (inactive).

Q: What about the IC50 [26] of the same compound?
A: Its IC50 is > 80 µM (inactive).

Q: What about the IC50 [27] of the same compound?
A: The IC50 was 0.25 µM (active).

Q: What about the IC50 [28] of the same compound?
A: The IC50 was > 99 µM (inactive).

Q: And the IC50 [29]?
A: The IC50 was 0.0144 µM (active).

Q: What about the IC50 [30] of the same compound?
A: The IC50 was > 100 µM (inactive).

Q: And the IC50 [31]?
A: The IC50 was 7.99 µM (active).

Q: What about the IC50 [32] of the same compound?
A: Its IC50 is 0.455 µM (active).

Q: And the IC50 [33]?
A: Its IC50 is 0.402 µM (active).

Q: What about the IC50 [34] of the same compound?
A: The IC50 was > 99 µM (inactive).

Q: Which EC50 [35] does the source give for CN(CC(=O)Nc1cccc(Cl)c1)S(=O)(=O)c1ccc2[nH]c(=O)oc2c1 here?
A: The EC50 was > 100 µM (inactive).

Q: And the IC50 [36]?
A: Its IC50 is 9.88 µM (active).

Q: And the IC50 [37]?
A: The IC50 was 7.87 µM (active).
